The results in this text go back to US10781470B2, “Diagnosis and treatment of incipient diabetes” (priority 2015, dated 2020).

For this test, the system named is stool alkaline phosphatase (AP). In words: Stool alkaline phosphatase assay in presence of AP isoform inhibitors. To be noted: stool supernatant; for inhibition of the AP activity in the stool: inhibitor 10 mM, pNPP substrate.

Method: Homogenization of stool: The supernatant of a homogenized stool suspension was used for IAP assay. A small amount of stool (milligrams) was measured and then the ‘stool dilution buffer’ (10 mM (millimolar) Tris-HCl, pH 8.0, 1 mM magnesium chloride, 10 μM (micromolar) zinc chloride) at a defined ratio was added. Usually, 50 μl (microliter) of stool dilution buffer was added to 1 mg of stool. The sample was vigorously vortexed to prepare a homogenized stool suspension, which was then centrifuged at 10,000×g for 20 min, and the supernatant containing IAP was collected and assayed for IAP concentration.
Alkaline Phosphatase Assay. The stool supernatant was assayed for alkaline phosphatase (AP) following an established protocol using the automatic biochemistry analyzer mentioned above (Nanjing, Jiangsu, China). In brief, 20 of supernatant was added to 1 ml of enzyme assay buffer (1.25 M diethanolamine (DEA) buffer, pH 10.2, 0.6 mM magnesium chloride) containing 10 mM p-nitrophenyl phosphate (pNPP), and the reaction mixture was incubated for one min at 37° C. followed by measuring the AP concentration by the analyzer pre-calibrated with AP standards. To determine the major isoform among stool APs, prior to assaying for AP activity an aliquot of stool sample was treated for 10 min with L-phenylalanine (L-Phe, 10 mM final conc.), a specific inhibitor of LAP, and another aliquot with L-homoarginine (L-Arg, 10 final conc.), an inhibitor of tissue non-specific alkaline phosphatase (TNAP). Each aliquot treated with an inhibitor was then mixed with the reaction buffer containing an equal concentration (10 mM) of the respective inhibitor, and assayed for AP activity using the analyzer. […] All AP assays were performed by a single laboratory technologist who was blinded to the diagnoses of participants. […]
Stool samples of non-diabetic healthy controls and T2DM patients were homogenized in a stool dilution buffer followed by centrifuging and collection of supernatant. […] Statistics: Values are expressed as mean+/−SEM. […]

In the case of `N[C@@H](Cc1ccccc1)C(=O)O` [L-Phe, L-phenylalanine], the “inhibition of the AP activity in the stool” value runs as follows: (total diabetic (T2DM) population) “approx. 70%”; (total healthy population) “approx. 80%”.

For `N=C(N)NCCCC[C@H](N)C(=O)O` [L-Arg, L-homoarginine], the “inhibitory effect on the stool AP activity” value (either group (healthy controls and T2DM patients)) was “no inhibitory effect”.
